In the NIST ThermoML archive (doi:10.1021/je050389b):
Numbers after ± are expanded uncertainties.

Assay: xn = mol fraction of the nth substance listed
Conditions: Liquid; for viscosity: 100.5 kPa; for mass density: 101 kPa

CCCCCCCC(=O)OCC [ethyl octanoate] + CCO
Conditions | mass density, 288.15 K [kg/m3] | mass density, 298.15 K [kg/m3] | mass density, 308.15 K [kg/m3] | mass density, 318.15 K [kg/m3] | viscosity, 288.15 K [mPa·s] | viscosity, 298.15 K [mPa·s] | viscosity, 308.15 K [mPa·s] | viscosity, 318.15 K [mPa·s]
x1 = 0.05 | 805.14 ± 0.23 | 796.5 ± 0.23 | 787.73 ± 0.24 | 778.81 ± 0.24 | 1.322 ± 0.019 | 1.094 ± 0.017 | 0.915 ± 0.016 | 0.772 ± 0.015
x1 = 0.1 | 814.37 ± 0.22 | 805.66 ± 0.23 | 796.82 ± 0.23 | 787.83 ± 0.24 | 1.299 ± 0.019 | 1.081 ± 0.017 | 0.907 ± 0.016 | 0.773 ± 0.015
x1 = 0.15 | 822.04 ± 0.22 | 813.27 ± 0.23 | 804.39 ± 0.23 | 795.36 ± 0.24 | 1.306 ± 0.019 | 1.087 ± 0.017 | 0.915 ± 0.016 | 0.78 ± 0.015
x1 = 0.2 | 828.52 ± 0.22 | 819.74 ± 0.23 | 810.84 ± 0.23 | 801.79 ± 0.24 | 1.32 ± 0.019 | 1.098 ± 0.017 | 0.926 ± 0.016 | 0.791 ± 0.015
x1 = 0.25 | 833.98 ± 0.22 | 825.17 ± 0.23 | 816.25 ± 0.23 | 807.19 ± 0.24 | 1.337 ± 0.019 | 1.112 ± 0.017 | 0.94 ± 0.016 | 0.804 ± 0.015
x1 = 0.3 | 838.69 ± 0.22 | 829.87 ± 0.23 | 820.94 ± 0.23 | 811.88 ± 0.24 | 1.356 ± 0.019 | 1.129 ± 0.017 | 0.953 ± 0.016 | 0.817 ± 0.015
x1 = 0.35 | 842.77 ± 0.22 | 833.94 ± 0.23 | 825.02 ± 0.23 | 815.96 ± 0.24 | 1.375 ± 0.019 | 1.145 ± 0.018 | 0.969 ± 0.016 | 0.831 ± 0.015
x1 = 0.4 | 846.39 ± 0.23 | 837.55 ± 0.23 | 828.63 ± 0.23 | 819.58 ± 0.24 | 1.398 ± 0.019 | 1.164 ± 0.018 | 0.984 ± 0.016 | 0.844 ± 0.016
x1 = 0.45 | 849.59 ± 0.23 | 840.77 ± 0.23 | 831.86 ± 0.24 | 822.83 ± 0.24 | 1.42 ± 0.02 | 1.183 ± 0.018 | 1 ± 0.017 | 0.859 ± 0.016
x1 = 0.5 | 852.45 ± 0.23 | 843.63 ± 0.24 | 834.72 ± 0.24 | 825.71 ± 0.24 | 1.443 ± 0.02 | 1.202 ± 0.018 | 1.016 ± 0.017 | 0.873 ± 0.016
x1 = 0.55 | 855.04 ± 0.24 | 846.23 ± 0.24 | 837.34 ± 0.24 | 828.36 ± 0.25 | 1.468 ± 0.02 | 1.222 ± 0.018 | 1.033 ± 0.017 | 0.888 ± 0.016
x1 = 0.6 | 857.4 ± 0.24 | 848.6 ± 0.24 | 839.72 ± 0.25 | 830.77 ± 0.25 | 1.492 ± 0.02 | 1.242 ± 0.018 | 1.05 ± 0.017 | 0.903 ± 0.016
x1 = 0.65 | 859.54 ± 0.24 | 850.77 ± 0.25 | 841.92 ± 0.25 | 832.99 ± 0.25 | 1.517 ± 0.02 | 1.262 ± 0.018 | 1.068 ± 0.017 | 0.917 ± 0.016
x1 = 0.7 | 861.52 ± 0.25 | 852.76 ± 0.25 | 843.94 ± 0.25 | 835.05 ± 0.26 | 1.542 ± 0.021 | 1.284 ± 0.019 | 1.085 ± 0.017 | 0.933 ± 0.016
x1 = 0.75 | 863.4 ± 0.25 | 854.68 ± 0.26 | 845.88 ± 0.26 | 837.01 ± 0.26 | 1.568 ± 0.021 | 1.306 ± 0.019 | 1.103 ± 0.017 | 0.948 ± 0.016
x1 = 0.8 | 865.13 ± 0.26 | 856.41 ± 0.26 | 847.64 ± 0.26 | 838.81 ± 0.27 | 1.595 ± 0.021 | 1.327 ± 0.019 | 1.121 ± 0.017 | 0.964 ± 0.016
x1 = 0.85 | 866.72 ± 0.26 | 858 ± 0.27 | 849.25 ± 0.27 | 840.47 ± 0.27 | 1.623 ± 0.021 | 1.35 ± 0.019 | 1.14 ± 0.018 | 0.979 ± 0.016
x1 = 0.9 | 868.19 ± 0.27 | 859.5 ± 0.27 | 850.78 ± 0.27 | 842.05 ± 0.28 | 1.649 ± 0.022 | 1.371 ± 0.019 | 1.159 ± 0.018 | 0.996 ± 0.017
x1 = 0.95 | 869.6 ± 0.28 | 860.93 ± 0.28 | 852.26 ± 0.28 | 843.57 ± 0.28 | 1.673 ± 0.022 | 1.391 ± 0.02 | 1.177 ± 0.018 | 1.013 ± 0.017
x1 = 1 | 870.79 ± 0.28 | 862.15 ± 0.29 | 853.52 ± 0.29 | 844.87 ± 0.29 | 1.697 ± 0.022 | 1.411 ± 0.02 | 1.193 ± 0.018 | 1.027 ± 0.017
